Experimental data reported in patent publication US11273168B2, “Methods of treating anxiety by administering a substituted quinolone” (OTSUKA PHARMACEUTICAL CO., LTD., priority 2010, dated 2022).
Where a name gives a salt, the structure may show the parent alone. Read-outs that look alike come from different tables or passages of the source.

Legend:
Assay type in all cases: biochemical
[1] = target: T1, Serotonin (5-HT) uptake (Rattus norvegicus, UniProt P31652); experiment: Serotonin (5-HT) uptake inhibitory activity using rat brain synaptosome (frontal cortex); details: tritium-labeled 5-HT 8 nM, 37° C. 10 minutes
T1 construct: The suspension was used as a crude synaptosome fraction; from tissue; host or cells: rat (male Wistar) frontal cortex, crude synaptosome fraction
Procedure: Measurement of Serotonin (5-HT) Uptake Inhibitory Activity of Test Compound Using Rat Brain Synaptosome
(§1) Male Wistar rats were decapitated, and their brains were removed and dissected to remove the frontal cortex. The separated frontal cortex was placed in a 20-fold weight of a 0.32 molarity (M) sucrose solution and homogenized with a potter homogenizer. The homogenate was centrifuged at 1000 g at 4° C. for 10 minutes, and the supernatant was further centrifuged at 20000 g at 4° C. for 20 minutes. […] The suspension was used as a crude synaptosome fraction.
(§2) Uptake reaction was performed using each well of a 96-well round-bottom plate and a 200 μl volume in total of a solution containing pargyline (final concentration: 10 μM) and ascorbic acid (final concentration: 0.2 mg/ml).
(§3) Specifically, a solvent, unlabeled 5-HT, and serially diluted test compounds were separately added to the wells, and the synaptosome fraction was added in an amount 1/10 of the final volume to each well and preincubated at 37° C. for 10 minutes. Then, a tritium-labeled 5-HT solution (final concentration: 8 nM) was added thereto to initiate uptake reaction at 37° C. 10 minutes later, the uptake reaction was terminated by suction filtration through a 96-well glass fiber filter plate. Furthermore, the filter was washed with a cold saline and then sufficiently dried. MicroScint-O (PerkinElmer Co., Ltd.) was added thereto, and the residual radioactivity on the filter was measured.
(§4) An uptake value obtained by the addition of only the solvent was defined as 100%, and an uptake value (nonspecific uptake value) obtained by the addition of the unlabeled 5-HT (final concentration: 10 μM) was defined as 0%. A 50%, inhibitory concentration was calculated from the test compound concentrations and inhibitory activities thereat.

[2] = target: T2, Dopamine (DA) uptake (Rattus norvegicus, UniProt P23977); experiment: Dopamine (DA) uptake inhibitory activity using rat brain synaptosome (corpus striatum); details: tritium-labeled DA 2 nM, 37° C. ten minutes, read-out: 50% Inhibitory concentration
T2 construct: The suspension was used as a crude synaptosome fraction; from tissue; host or cells: rat (male Wistar) corpus striatum, crude synaptosome fraction
Procedure: Measurement of Dopamine (DA) Uptake Inhibitory Activity of Test Compound Using Rat Brain Synaptosome
as §1, with “corpus striatum.” for “frontal cortex.”, “corpus striatum” for “frontal cortex”
Uptake reaction was performed using each well of a 96-well round-bottom plate and a 200 μl volume in total of a solution containing pargyline (final concentration: 10 μM) and ascorbic acid (final concentration: 0.2 mg/mil).
as §3, with “unlabeled DA,” for “unlabeled 5-HT,”, “tritium-labeled DA” for “tritium-labeled 5-HT”, “concentration: 2” for “concentration: 8”, “C. Ten” for “C. 10”
as §4, with “DA” for “5-HT”, “50%” for “50%,”

[3] = target: Norepinephrine (NE) uptake (Rattus norvegicus, UniProt Q9WTR4); experiment: Norepinephrine (NE) uptake inhibitory activity using rat brain synaptosome (hippocampus)
Procedure: Measurement of Norepinephrine (NE) Uptake Inhibitory Activity of Test Compound Using Rat Brain Synaptosome
Male Wistar rats were decapitated, and their brains were removed and dissected to remove the hippocampus. The separated hippocampus was placed in a 20-fold weight of a 0.32 molarity (M) sucrose solution and homogenized with a potter homogenizer. The homogenate was centrifuged at 1000 g at 4° C. for 10 minutes, and the supernatant was further centrifuged at 20000 g at 4° C. for 20 minutes. The pellet was suspended in an incubation buffer (20 mM HEPES buffer (pH 7.4) containing 10 mM glucose, 145 mM sodium chloride, 4.5 mM potassium chloride, 1.2 mM magnesium chloride, and 1.5 mM calcium chloride). The suspension was used as a crude synaptosome fraction.
as §2
as §3, with “unlabeled NE,” for “unlabeled 5-HT,”, “tritium-labeled NE” for “tritium-labeled 5-HT”, “concentration: 12” for “concentration: 8”, “C. Ten” for “C. 10”
as §4, with “NE” for “5-HT”, “50%” for “50%,”

[4] = read-out: 50% Inhibitory concentration
[5] = tritium-labeled NE 12 nM, 37° C. ten minutes, read-out: 50% inhibitory concentration
[6] = read-out: 50% inhibitory concentration, tritium-labeled NE 12 nM, 37° C. ten minutes

T1 sequence (P31652 whole entry): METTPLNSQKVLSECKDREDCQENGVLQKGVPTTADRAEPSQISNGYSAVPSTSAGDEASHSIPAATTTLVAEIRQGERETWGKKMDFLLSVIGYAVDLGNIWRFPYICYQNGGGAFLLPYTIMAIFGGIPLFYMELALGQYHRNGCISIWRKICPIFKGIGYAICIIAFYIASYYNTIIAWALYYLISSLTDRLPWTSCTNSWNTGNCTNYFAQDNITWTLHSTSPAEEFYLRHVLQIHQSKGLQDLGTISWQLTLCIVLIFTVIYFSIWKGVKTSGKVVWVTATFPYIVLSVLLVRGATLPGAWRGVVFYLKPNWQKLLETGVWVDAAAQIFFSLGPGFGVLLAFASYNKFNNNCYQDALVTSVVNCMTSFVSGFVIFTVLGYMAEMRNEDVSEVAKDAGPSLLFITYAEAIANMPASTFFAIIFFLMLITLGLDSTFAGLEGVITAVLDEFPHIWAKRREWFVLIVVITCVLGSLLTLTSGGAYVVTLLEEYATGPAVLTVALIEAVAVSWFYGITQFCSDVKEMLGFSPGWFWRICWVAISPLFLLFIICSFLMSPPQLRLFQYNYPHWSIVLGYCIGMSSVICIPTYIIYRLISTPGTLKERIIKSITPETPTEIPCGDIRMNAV
T2 sequence (P23977 whole entry): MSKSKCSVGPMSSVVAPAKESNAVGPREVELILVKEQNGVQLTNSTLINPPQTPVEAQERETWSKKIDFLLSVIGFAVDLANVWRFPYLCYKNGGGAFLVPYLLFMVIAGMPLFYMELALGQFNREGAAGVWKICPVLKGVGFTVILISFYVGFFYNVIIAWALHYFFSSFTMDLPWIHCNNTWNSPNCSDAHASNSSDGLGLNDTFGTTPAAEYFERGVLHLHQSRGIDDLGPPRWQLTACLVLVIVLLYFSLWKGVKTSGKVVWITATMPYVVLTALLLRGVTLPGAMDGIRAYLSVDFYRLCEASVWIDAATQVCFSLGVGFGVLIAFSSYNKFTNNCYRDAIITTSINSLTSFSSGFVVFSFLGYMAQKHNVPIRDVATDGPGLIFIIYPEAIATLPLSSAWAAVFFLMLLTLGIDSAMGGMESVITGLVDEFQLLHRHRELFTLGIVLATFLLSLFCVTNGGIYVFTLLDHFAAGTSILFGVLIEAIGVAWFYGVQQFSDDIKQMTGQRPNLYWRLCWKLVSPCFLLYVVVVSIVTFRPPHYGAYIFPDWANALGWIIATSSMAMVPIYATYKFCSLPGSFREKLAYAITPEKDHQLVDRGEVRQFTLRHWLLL

SMILES: CC1(C)CN(c2ccc(OC(F)F)c(Cl)c2)[C@@H]2CCCC[C@H]2N1 [Example 1026]
- IC50 [1, 4]: 2.4 nM
- IC50 [2]: 12.3 nM
- IC50 [3, 5]: 4.2 nM

SMILES: Clc1ccc(N2CC3(CCC3)N[C@H]3CCCC[C@H]32)cc1 [Example 276]
- IC50 [1, 4]: 7.2 nM
- IC50 [2]: 10.9 nM
- IC50 [3, 5]: 4.5 nM

SMILES: CN1[C@H]2CCCC[C@@H]2N(c2ccc3sccc3c2)CC1(C)C [Example 187]
- IC50 [1, 4]: 5.8 nM
- IC50 [2]: 12.1 nM
- IC50 [3, 5]: 6 nM

SMILES: COc1c(F)cc(N2CC(C)(C)N[C@H]3CCCC[C@@H]32)cc1F [Example 233]
- IC50 [1, 4]: 7.4 nM
- IC50 [2]: 38.8 nM
- IC50 [3, 5]: 3.7 nM

SMILES: CN1[C@H]2CCCC[C@@H]2N(c2ccc(Cl)c(Cl)c2)CC1(C)C [Example 247]
- IC50 [1, 4]: 42.8 nM
- IC50 [2]: 8.7 nM
- IC50 [3, 5]: 6.6 nM

SMILES: C[C@@H]1CN(c2ccc(F)c3occc23)[C@H]2CCCC[C@@H]2N1 [Example 1124]
- IC50 [1, 4]: 7.1 nM
- IC50 [2]: 49.3 nM
- IC50 [3, 5]: 0.8 nM

SMILES: CC1(C)CN(c2ccc3sccc3c2)[C@H]2CCC[C@@H]2N1 (relative stereo) [Example 13]
- IC50 [1, 4]: 5.1 nM
- IC50 [2]: 85.4 nM
- IC50 [3, 5]: 14.3 nM

SMILES: CC1(C)CN(c2cccc3ncccc23)[C@H]2CCCC[C@H]2N1 [Example 120]
- IC50 ([1]; 50% Inhibitory concentration): 9.2 nM
- IC50 [2]: 187 nM
- IC50 [3, 6]: 9.2 nM

SMILES: CC1(C)CN(c2ccc(O)cc2)[C@H]2CCCC[C@H]2N1 [Example 805]
- IC50 [1, 4]: 42.6 nM
- IC50 [2]: 83.8 nM
- IC50 [3, 5]: 30.4 nM

SMILES: CC1(C)CN(c2ccc(F)c(Cl)c2)[C@@H]2CCCC[C@@H]2N1 [Example 112, (4aS,8aR)-1-(3-chloro-4-fluorophenyl)-3,3-dimethyldecahydroquinoxaline hydrochloride]
- IC50 [1, 4]: 7.1 nM
- IC50 [2]: 264 nM
- IC50 [3, 5]: 87.3 nM

SMILES: COc1ccc(N2CC3(CCC3)N[C@H]3CCCC[C@H]32)c2ccoc12 [Example 579, (4a′R,8a′S)-4′-(7-methoxybenzofuran-4-yl)octahydro-1′H-spiro[cyclobutane-1,2′-quinoxaline]]
- IC50 [1, 4]: 4.5 nM
- IC50 [2]: 46.5 nM
- IC50 [3, 5]: 5.1 nM

SMILES: CC1(C)CN(c2ccc3cc(OC(F)F)ccc3c2)[C@H]2CCCC[C@@H]2N1 [Example 867]
- IC50 [1, 4]: 4.7 nM
- IC50 [2]: 85.7 nM
- IC50 [3, 5]: 11.7 nM

SMILES: CC1(C)CN(c2ccc3ncsc3c2)[C@H]2CCCC[C@@H]2N1 (racemic) [Example 405]
- IC50 [1, 4]: 6.4 nM
- IC50 [2]: 74.8 nM
- IC50 [3, 5]: 4.4 nM

SMILES: CC1(C)CN(c2ccc(F)c3ccccc23)[C@H]2CCCC[C@@H]2N1 (relative stereo) [Example 409]
- IC50 [1, 4]: 35.6 nM
- IC50 [2]: 165 nM
- IC50 [3, 5]: 9.1 nM

SMILES: CC1(C)CN(c2ccc3sccc3c2)[C@@H]2CCC[C@@H]2N1 (racemic) [Example 7]
- IC50 [1, 4]: 1 nM
- IC50 [2]: 78.9 nM
- IC50 [3, 5]: 9.5 nM

SMILES: CC1(C)CN(c2cccc3sccc23)[C@H]2CCCC[C@H]2N1 [Example 124]
- IC50 [1, 4]: 8.5 nM
- IC50 [2]: 9.1 nM
- IC50 [3, 5]: 0.8 nM

SMILES: C[C@@H]1CN(c2ccc3sccc3c2)[C@H]2CCCC[C@@H]2N1 [Example 1121]
- IC50 [1, 4]: 8.5 nM
- IC50 [2]: 29.9 nM
- IC50 [3, 5]: 0.7 nM

SMILES: CC1(C)CN(c2ccc(OC(F)F)c(F)c2)[C@H]2CCCC[C@@H]2N1 [Example 587, (4aS,8aS)-1-(4-(difluoromethoxy)-3-fluorophenyl)-3,3-dimethyldecahydroquinoxaline dihydrochloride]
- IC50 [1, 4]: 0.9 nM
- IC50 [2]: 76.1 nM
- IC50 [3, 5]: 1.9 nM

SMILES: CC1(C)CN(c2cc(F)cc3ccsc23)[C@@H]2CCCC[C@@H]2N1 [Example 621]
- IC50 ([1]; 50% Inhibitory concentration): 7 nM
- IC50 [2]: 128 nM
- IC50 [3, 6]: 0.7 nM

SMILES: CC1(C)CN(c2ccc(Cl)c3occc23)[C@H]2CCCC[C@@H]2N1 [Example 193]
- IC50 [1, 4]: 3.4 nM
- IC50 [2]: 5.7 nM
- IC50 [3, 5]: 4.4 nM

SMILES: CC1(C)CN(c2ccc(F)c3occc23)[C@@H]2CCCC[C@@H]2N1 [Example 77, (4aS,8aR)-1-(7-fluorobenzofuran-4-yl)-3,3-dimethyldecahydroquinoxaline]
- IC50 [1, 4]: 0.8 nM
- IC50 [2]: 41.2 nM
- IC50 [3, 5]: 3.9 nM

SMILES: CC1(C)CN(c2csc3ccccc23)[C@@H]2CCCC[C@@H]2N1 [Example 717]
- IC50 [1, 4]: 4.2 nM
- IC50 [2]: 60.1 nM
- IC50 [3, 5]: 4.8 nM

SMILES: CC1(C)CN(c2cccc3ccccc23)[C@H]2CCCC[C@H]2N1 [Example 118]
- IC50 [1, 4]: 13.7 nM
- IC50 [2]: 8.3 nM
- IC50 [3, 5]: 3.7 nM

SMILES: C[C@@H]1CN(c2cccc3ccsc23)[C@@H]2CCCC[C@@H]2N1 (relative stereo) [Example 1113]
- IC50 [1, 4]: 5.4 nM
- IC50 [2]: 26 nM
- IC50 [3, 5]: 1.7 nM

SMILES: Cn1c(C#N)cc2cc(N3CC(C)(C)N[C@@H]4CCCC[C@@H]43)ccc21 [Example 150, 5-((4aR,8aS)-3,3-dimethyldecahydroquinoxalin-1-yl)-1-methyl-1H-indole-2-carbonitrile]
- IC50 [1, 4]: 5.4 nM
- IC50 [2]: 200 nM
- IC50 [3, 5]: 23.6 nM

SMILES: CC1(C)CN(c2cc(Cl)c3occc3c2)[C@H]2CCCC[C@@H]2N1 [Example 884]
- IC50 [1, 4]: 7.3 nM
- IC50 [2]: 52.8 nM
- IC50 [3, 5]: 4.8 nM

SMILES: CC1(C)CN(c2ccc(F)c3occc23)[C@H]2CCCC[C@@H]2N1 [Example 192]
- IC50 [1, 4]: 2.9 nM
- IC50 [2]: 8.6 nM
- IC50 [3, 5]: 3.6 nM

SMILES: CC1(C)CN(c2ccnc3[nH]ccc23)[C@H]2CCCC[C@@H]2N1 [Example 586, (4aS,8aS)-3,3-dimethyl-1-(1H-pyrrolo[2,3-b]pyridin-4-yl)decahydroquinoxaline fumarate]
- IC50 [1, 4]: 5.2 nM
- IC50 [2]: 93 nM
- IC50 [3, 5]: 4 nM

SMILES: CC1(C)CN(c2ccc(O)c(Cl)c2)[C@H]2CCCC[C@@H]2N1 [Example 918]
- IC50 [1, 4]: 10 nM
- IC50 [2]: 42 nM
- IC50 [3, 5]: 0.8 nM

SMILES: CC1(C)CN(c2ccc3[nH]c(C#N)cc3c2)[C@H]2CCCC[C@@H]2N1 [Example 582, (4aS,8aS)-1-(2-cyano-1H-indol-5-yl) 3,3-dimethyldecahydroquinoxaline]
- IC50 [1, 4]: 4.1 nM
- IC50 [2]: 68.8 nM
- IC50 [3, 5]: 6 nM

SMILES: Cc1c(Cl)cccc1N1CC(C)(C)N[C@H]2CCCC[C@H]21 [Example 468]
- IC50 [1, 4]: 3.8 nM
- IC50 [2]: 54 nM
- IC50 [3, 5]: 7.5 nM

SMILES: CC1(C)CN(c2cccc3occc23)[C@H]2CCCC[C@H]2N1 [Example 131]
- IC50 [1, 4]: 6.1 nM
- IC50 [2]: 8.3 nM
- IC50 [3, 5]: 0.7 nM

SMILES: CC1(C)CN(c2ccc3ccsc3c2)[C@H]2CCCC[C@@H]2N1 [Example 188]
- IC50 [1, 4]: 6 nM
- IC50 [2]: 7.9 nM
- IC50 [3, 5]: 0.8 nM
